Experimental data taken from patent publication US20250340574A1, “MODULATORS OF CYSTIC FIBROSIS TRANSMEMBRANE CONDUCTANCE REGULATOR” (Vertex Pharmaceuticals Incorporated, priority 2022, published 2025).

Target: T1, CFTR (F508del/MF-HBE cells) (Homo sapiens, UniProt P13569, DEL508-508)
T1 construct: human bronchial epithelial (HBE) cells derived from CF subjects heterozygous for F508del and a minimal function CFTR mutation (F508del/MF-HBE); endogenous in cells; host or cells: Primary human bronchial epithelial cells from CF subjects (F508del/MF genotype), differentiated at an air-liquid interface
T1 sequence (P13569 with tags, fused parts or gaps DEL508-508): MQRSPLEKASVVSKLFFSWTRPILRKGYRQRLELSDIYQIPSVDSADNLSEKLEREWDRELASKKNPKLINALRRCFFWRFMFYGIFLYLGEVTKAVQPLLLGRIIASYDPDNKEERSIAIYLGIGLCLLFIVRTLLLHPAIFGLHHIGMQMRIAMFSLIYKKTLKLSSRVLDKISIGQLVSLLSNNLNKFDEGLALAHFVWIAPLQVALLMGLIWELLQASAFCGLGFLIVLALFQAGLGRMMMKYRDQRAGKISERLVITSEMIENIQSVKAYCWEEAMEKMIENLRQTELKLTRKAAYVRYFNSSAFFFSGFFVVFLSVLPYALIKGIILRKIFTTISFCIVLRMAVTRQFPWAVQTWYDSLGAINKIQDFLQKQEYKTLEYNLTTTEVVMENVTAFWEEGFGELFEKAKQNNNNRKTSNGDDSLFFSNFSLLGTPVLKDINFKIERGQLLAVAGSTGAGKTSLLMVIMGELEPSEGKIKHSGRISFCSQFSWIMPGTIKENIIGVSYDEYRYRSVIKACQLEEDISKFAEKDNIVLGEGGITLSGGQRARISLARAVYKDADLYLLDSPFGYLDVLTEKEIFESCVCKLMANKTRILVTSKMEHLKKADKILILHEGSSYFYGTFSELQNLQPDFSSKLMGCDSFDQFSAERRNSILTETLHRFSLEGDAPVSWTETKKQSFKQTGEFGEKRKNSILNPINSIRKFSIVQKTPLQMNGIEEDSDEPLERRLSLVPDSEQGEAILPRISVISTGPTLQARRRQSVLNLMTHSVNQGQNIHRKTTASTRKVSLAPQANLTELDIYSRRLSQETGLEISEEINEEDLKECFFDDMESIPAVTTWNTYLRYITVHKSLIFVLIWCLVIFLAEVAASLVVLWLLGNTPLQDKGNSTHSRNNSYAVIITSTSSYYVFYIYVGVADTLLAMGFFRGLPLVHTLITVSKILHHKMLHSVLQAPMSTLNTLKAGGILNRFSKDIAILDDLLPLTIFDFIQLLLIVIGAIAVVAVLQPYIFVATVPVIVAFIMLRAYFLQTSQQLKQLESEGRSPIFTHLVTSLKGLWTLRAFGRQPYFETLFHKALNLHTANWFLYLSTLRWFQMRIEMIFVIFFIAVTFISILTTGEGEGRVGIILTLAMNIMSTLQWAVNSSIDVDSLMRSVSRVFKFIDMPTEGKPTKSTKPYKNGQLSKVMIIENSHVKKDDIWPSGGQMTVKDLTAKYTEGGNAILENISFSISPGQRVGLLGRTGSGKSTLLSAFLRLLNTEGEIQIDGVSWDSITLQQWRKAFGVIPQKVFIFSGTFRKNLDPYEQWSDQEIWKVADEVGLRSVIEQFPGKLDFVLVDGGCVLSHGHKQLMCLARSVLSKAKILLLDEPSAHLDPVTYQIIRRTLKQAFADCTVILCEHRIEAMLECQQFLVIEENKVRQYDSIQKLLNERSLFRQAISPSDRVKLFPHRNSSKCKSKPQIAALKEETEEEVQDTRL
Experiment: Ussing chamber assay of CFTR-mediated short-circuit currents, Assay D (single concentration of 1 μM)
Format: cell-based
Details: with 44 nM potentiator and 18 μM Tezacaftor, 20% human serum; for D activity at 1 μM (%): 18-24 hours
Outline: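 F508del/MF-HBE cells grown at air-liquid interface were incubated 18-24 h at 37 °C in 20% human serum with correctors plus 18 μM tezacaftor and a fixed partner compound (33 nM for concentration series, 44 nM at 1 μM). ISC was read at 0 mV after 20 μM forskolin, minus the post-inhibitor current.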

D activity at 1 μM (%) | D act. at 1 μM (%) | Compound
+++ (+++ is >60%) | – | Cc1cccc(C)c1-c1nc2nc(c1C)OC[C@@H](CCC(C)(C)C)N(Cc1cnc3oc(C4CC4)cc3n1)C(=O)c1cccc(c1)S(=O)(=O)N2 [Compound I-184]
+++ (+++ is >60%) | – | Cc1cccc(C)c1-c1cc2nc(n1)NS(=O)(=O)c1cccc(c1)C(=O)N(Cc1cnc3oc(C4CC4)cc3n1)[C@H](CC1(C)CCC1)CO2 [Compound I-116]
+++ (+++ is >60%) | – | Cc1cccc(C)c1-c1cc2nc(n1)NS(=O)(=O)c1cccc(c1)C(=O)N(Cc1cnc3oc(C(C)(C)C)cc3n1)[C@H](CC1CC1)CO2 [Compound I-219]
+++ (+++ is >60%) | – | Cc1cccc(C)c1-c1cc2nc(n1)NS(=O)(=O)c1cccc(c1)C(=O)N(Cc1cnc3oc(C(C)C)cc3n1)[C@H](CC1(C)CCC1)CO2 [Compound I-55]
+++ (+++ is >60%) | – | Cc1cccc(C)c1-c1cc2nc(n1)NS(=O)(=O)c1cccc(c1)C(=O)N(Cc1nc3cc(C(C)(C)C)oc3cc1F)[C@H](CC1(C)CC1)CO2 [Compound I-243]
+++ (+++ is >60%) | – | Cc1cccc(C)c1-c1cc2nc(n1)NS(=O)(=O)c1cccc(c1)C(=O)N(Cc1cnc3cc(C(C)C)n(CCO)c3n1)[C@H](CC(C)(C)C)CO2 [Compound I-160, (11R)-6-(2,6-Dimethylphenyl)-11-(2,2-dimethylpropyl)-12-[[5-(2-hydroxyethyl)-6-isopropyl-pyrrolo[2,3-b]pyrazin-3-yl]methyl]-2,2-dioxo-9-oxa-2λ^6-thia-3,5,12,19-tetrazatricyclo[12.3.1.14,8]nonadeca-1(18),4(19),5,7,14,16-hexaen-13-one]
+++ (+++ is >60%) | – | Cc1cccc(C)c1-c1cc2nc(n1)NS(=O)(=O)c1cccc(c1)C(=O)N(Cc1cnc3oc(C(C)C)c(Cl)c3n1)[C@H](COC(C)C)CO2 [Compound I-162]
+++ (+++ is >60%) | – | Cc1cccc(C(C)C)c1-c1nc2nc(c1C)OC[C@@H](CC(C)(C)C)N(Cc1cnc3cc(C(C)C)n(C)c3n1)C(=O)c1cccc(c1)S(=O)(=O)N2 (atropisomer, axis not shown) [Compound I-180]
– | +++ (+++ is >60%) | COC(C)(C)CC(C)(O)c1cc2nc(CN3C(=O)c4cccc(c4)S(=O)(=O)Nc4nc(cc(-c5c(C)cccc5C)n4)OC[C@H]3CC3(C)CC3)cnc2o1 (stereo partly drawn) [IV-13, (11R)-6-(2,6-dimethylphenyl)-12-[[6-(1-hydroxy-3-methoxy-1,3-dimethyl-butyl)furo[2,3-b]pyrazin-2-yl]methyl]-11-[(1-methylcyclopropyl)methyl]-2,2-dioxo-9-oxa-2λ^6-thia-3,5,12,19-tetrazatricyclo[12.3.1.14,8]nonadeca-1(18),4(19),5,7,14,16-hexaen-13-one]
+++ (+++ is >60%) | – | Cc1cccc(C)c1-c1cc2nc(n1)NS(=O)(=O)c1cccc(c1)C(=O)N(Cc1cnc3nn(C(C)C)cc3n1)[C@H](CC(C)(C)C)CO2 [Compound I-169, (11R)-6-(2,6-Dimethylphenyl)-11-(2,2-dimethylpropyl)-12-[(2-isopropylpyrazolo[3,4-b]pyrazin-5-yl)methyl]-2,2-dioxo-9-oxa-2λ^6-thia-3,5,12,19-tetrazatricyclo[12.3.1.14,8]nonadeca-1(18),4(19),5,7,14,16-hexaen-13-one]
– | +++ (+++ is >60%) | CC(C)=Cc1cc2nc(CN3C(=O)c4cccc(c4)S(=O)(=O)Nc4nc(cc(-c5c(C)cccc5C)n4)OC[C@H]3CC3(C)CC3)cnc2o1 [IV-17, (11R)-6-(2,6-dimethylphenyl)-11-[(1-methylcyclopropyl)methyl]-12-[[6-(2-methylprop-1-enyl)furo[2,3-b]pyrazin-2-yl]methyl]-2,2-dioxo-9-oxa-2λ^6-thia-3,5,12,19-tetrazatricyclo[12.3.1.14,8]nonadeca-1(18),4(19),5,7,14,16-hexaen-13-one]
+++ (+++ is >60%) | – | Cc1cccc(OC(C)C)c1-c1nc2nc(c1C)OC[C@@H](CC(C)(C)C)N(Cc1cnc3cc(C(C)(C)C)n(C)c3n1)C(=O)c1cccc(c1)S(=O)(=O)N2 (atropisomer, axis not shown) [Compound I-261]
+++ (+++ is >60%) | – | Cc1cccc(C)c1-c1cc2nc(n1)NS(=O)(=O)c1cccc(c1)C(=O)N(Cc1cnc3oc(C(C)C)cc3n1)C(CC(C)(C)C1CC1)CO2 (stereo not drawn) [Compound I-105]
+++ (+++ is >60%) | – | Cc1cccc(C)c1-c1cc2nc(n1)NS(=O)(=O)c1cccc(c1)C(=O)N(Cc1nc3cc(C(C)C)oc3cc1F)[C@H](COC(C)C)CO2 [Compound I-77]
+++ (+++ is >60%) | – | Cc1cccc(C)c1-c1cc2nc(n1)NS(=O)(=O)c1cccc(c1)C(=O)N(Cc1cnc3oc(C4(C)CC4)cc3n1)[C@H](COC(C)C)CO2 [Compound I-186]
+++ (+++ is >60%) | – | Cc1cccc(C)c1-c1nc2nc(c1C)OC[C@@H](C[C@H]1CCCCO1)N(Cc1cnc3oc(C4CC4)cc3n1)C(=O)c1cccc(c1)S(=O)(=O)N2 [Compound I-192]
+++ (+++ is >60%) | – | Cc1cccc(C)c1-c1cc2nc(n1)NS(=O)(=O)c1cccc(c1)C(=O)N(Cc1nc3c(cc1F)nc(C(C)C)n3C)[C@H](COC(C)C)CO2 [Compound I-68]
– | +++ (+++ is >60%) | Cc1cccc(C)c1-c1cc2nc(n1)NS(=O)(=O)c1cccc(c1)C(=O)N(Cc1cnc3oc(C(C)(C)C)cc3n1)[C@H](CC1CCC1)CO2 [IV-7]
– | +++ (+++ is >60%) | Cc1cccc(C)c1-c1cc2nc(n1)NS(=O)(=O)c1cccc(c1)C(=O)N(Cc1cnc3oc([C@](C)(O)CO)cc3n1)[C@H](CC1(C)CC1)CO2 (single isomer, unassigned) [IV-15]
+++ (+++ is >60%) | – | Cc1cccc(C)c1-c1nc2nc(c1C)OC[C@@H](CC1(C)CC1)N(Cc1cnc3oc(C(C)(C)C)cc3n1)C(=O)c1cccc(c1)S(=O)(=O)N2 [Compound I-221]
+++ (+++ is >60%) | – | Cc1cccc(C)c1-c1cc2nc(n1)NS(=O)(=O)c1cccc(c1)C(=O)N(Cc1cnc3cc(C4CC4)n(C)c3n1)[C@H](CC(C)(C)C)CO2 [Compound I-150]
+++ (+++ is >60%) | – | Cc1cccc(C)c1-c1cc2nc(n1)NS(=O)(=O)c1cccc(c1)C(=O)N(Cc1cn3cccc(O)c3n1)[C@H](CC(C)(C)C)CO2 [III-15]
– | +++ (+++ is >60%) | Cc1cccc(C)c1-c1cc2nc(n1)NS(=O)(=O)c1cccc(c1)C(=O)N(Cc1cnc3oc(C(C)(C)C)cc3n1)[C@H](CC1CCCC1)CO2 [IV-8]
++ (++ is 30-60%) | – | CCC(C)(C)C[C@H]1COc2cc(-c3c(C)cccc3C)nc(n2)NS(=O)(=O)c2cccc(c2)C(=O)N1Cc1cnc2oc(C(C)C)cc2n1 (stereo in doubt) [Compound I-39]
– | +++ (+++ is >60%) | CCc1c2nc(nc1-c1c(C)cccc1C)NS(=O)(=O)c1cccc(c1)C(=O)N(Cc1cnc3oc(C(C)(C)C)cc3n1)[C@H](COC(C)C)CO2 [IV-3]
+++ (+++ is >60%) | – | Cc1cccc(C)c1-c1cc2nc(n1)NS(=O)(=O)c1cccc(c1)C(=O)N(Cc1ccc3oc(C4(C)CC4)cc3n1)[C@H](CC1(C)CC1)CO2 [Compound I-226]
+++ (+++ is >60%) | – | Cc1cccc(C(C)C)c1-c1nc2nc(c1C)OC[C@@H](CC(C)(C)C)N(Cc1cnc3oc(C(C)C)cc3n1)C(=O)c1cccc(c1)S(=O)(=O)N2 (atropisomer, axis not shown) [Compound I-136]
